In US11564920B2, “5-heteroaryl-1H-pyrazol-3-amine derivative” (Sumitomo Pharma Co., Ltd., priority 2020, dated 2023):
“Also recorded” adds a separate entry of the source.

What was measured:
[1] = target: CHK1 (Homo sapiens (Human), UniProt O14757); test: CHK1 inhibitory activity test (IMAP TR-FRET); format: biochemical; settings: for effect of suppressing CHK1 activity (in words): compared with prexasertib; for inhibition at 0.0001 µM: read-out: CHK1 inhibition % at 0.1 nM
Description: IMAP TR-FRET Screening Express Kit (R8160) was obtained from Molecular Devices. […] FAM-PKAtide (R7255, Molecular Devices) and FAM-Phospho-PKAtide (R7304, Molecular Devices) were admixed after dilution, and calibration standard systems for phosphorylation levels from 0 to 100% were created. 5 μL of a compound dissolved in a 0.4% DMSO solution was added to a 384 well plate. A compound study group to which 5 μL of each of CHK1, CHK1tide, and ATP was added, and a standard group to which 20 μL of standard was added were created, and subjected to a kinase reaction for 3 hours at 30° C. Subsequently, 60 μL of Binding Reagent (80% Buffer A, 20% Buffer B, 1:600 Binding Reagent, 1:400 Tb-Donor) was added for a binding reaction for 2 hours at room temperature.

[2] = system: ES-2 cells; test: Cell growth suppression experiment; format: cell-based; settings: for IC50: Homo sapiens, 48 h, cultured for 2 days, read-out: IC50 (cell growth suppression, ranking); for cell growth suppression effect (in words): compared with prexasertib
Description: ES-2 cells were obtained from the American Type Culture Collection (ATCC). These cells were cultured at 37° C. in the presence of 5% CO2 in a 10% fetal bovine serum, […] penicillin/streptomycin containing McCoy's 5a medium.
500 cells were seeded for each well in a 384-well plate, and the evaluated compound was added so that the final concentration of DMSO would be 0.1% to culture the cells for 2 days. After completion of the culture, the cell viability rate was calculated using CellTiter-Glo® 3D Reagent (Promega, G968B).

[3] = target: CYP3A4 (Homo sapiens (Human), UniProt P08684); test: CYP3A4 MBI and enzyme inactivation clearance evaluation; format: in vitro ADME; settings: human liver microsome; for microsomal CLint: liver microsomes, probe midazolam or testosterone; for Factor of change in IC50 value: by pre-incubation with NADPH, MBI action when 2-fold or greater
Chain of CYP3A4 (P08684 whole entry): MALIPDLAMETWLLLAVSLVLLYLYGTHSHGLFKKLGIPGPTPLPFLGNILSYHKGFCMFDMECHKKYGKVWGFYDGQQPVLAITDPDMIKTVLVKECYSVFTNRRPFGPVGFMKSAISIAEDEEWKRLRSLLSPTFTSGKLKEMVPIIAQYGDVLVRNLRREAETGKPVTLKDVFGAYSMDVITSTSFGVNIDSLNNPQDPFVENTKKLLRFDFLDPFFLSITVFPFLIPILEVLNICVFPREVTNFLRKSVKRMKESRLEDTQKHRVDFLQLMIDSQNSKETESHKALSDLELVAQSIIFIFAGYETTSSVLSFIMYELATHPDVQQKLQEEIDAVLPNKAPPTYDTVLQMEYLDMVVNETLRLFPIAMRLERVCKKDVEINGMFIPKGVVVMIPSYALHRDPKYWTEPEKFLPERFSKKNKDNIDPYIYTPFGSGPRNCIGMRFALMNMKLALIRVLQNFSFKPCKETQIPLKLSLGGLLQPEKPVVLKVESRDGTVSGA
Description: The effect and mode of inhibition of the test compound on CYP3A4 were evaluated using a human liver microsome as an enzyme source and midazolam or testosterone as a substrate. […] The IC50 value was calculated from a concentration plot.

[4] = target: hERG current (Homo sapiens (Human), UniProt Q12809); test: hERG current blocking test; settings: for hERG/CHK1: IC50 of hERG divided by IC50 of CHK1 inhibition of Test Example 1; for IC50: read-out: hERG inhibition IC50, hERG stably expressing CHO cells, Qube384
Chain of hERG current (Q12809 whole entry): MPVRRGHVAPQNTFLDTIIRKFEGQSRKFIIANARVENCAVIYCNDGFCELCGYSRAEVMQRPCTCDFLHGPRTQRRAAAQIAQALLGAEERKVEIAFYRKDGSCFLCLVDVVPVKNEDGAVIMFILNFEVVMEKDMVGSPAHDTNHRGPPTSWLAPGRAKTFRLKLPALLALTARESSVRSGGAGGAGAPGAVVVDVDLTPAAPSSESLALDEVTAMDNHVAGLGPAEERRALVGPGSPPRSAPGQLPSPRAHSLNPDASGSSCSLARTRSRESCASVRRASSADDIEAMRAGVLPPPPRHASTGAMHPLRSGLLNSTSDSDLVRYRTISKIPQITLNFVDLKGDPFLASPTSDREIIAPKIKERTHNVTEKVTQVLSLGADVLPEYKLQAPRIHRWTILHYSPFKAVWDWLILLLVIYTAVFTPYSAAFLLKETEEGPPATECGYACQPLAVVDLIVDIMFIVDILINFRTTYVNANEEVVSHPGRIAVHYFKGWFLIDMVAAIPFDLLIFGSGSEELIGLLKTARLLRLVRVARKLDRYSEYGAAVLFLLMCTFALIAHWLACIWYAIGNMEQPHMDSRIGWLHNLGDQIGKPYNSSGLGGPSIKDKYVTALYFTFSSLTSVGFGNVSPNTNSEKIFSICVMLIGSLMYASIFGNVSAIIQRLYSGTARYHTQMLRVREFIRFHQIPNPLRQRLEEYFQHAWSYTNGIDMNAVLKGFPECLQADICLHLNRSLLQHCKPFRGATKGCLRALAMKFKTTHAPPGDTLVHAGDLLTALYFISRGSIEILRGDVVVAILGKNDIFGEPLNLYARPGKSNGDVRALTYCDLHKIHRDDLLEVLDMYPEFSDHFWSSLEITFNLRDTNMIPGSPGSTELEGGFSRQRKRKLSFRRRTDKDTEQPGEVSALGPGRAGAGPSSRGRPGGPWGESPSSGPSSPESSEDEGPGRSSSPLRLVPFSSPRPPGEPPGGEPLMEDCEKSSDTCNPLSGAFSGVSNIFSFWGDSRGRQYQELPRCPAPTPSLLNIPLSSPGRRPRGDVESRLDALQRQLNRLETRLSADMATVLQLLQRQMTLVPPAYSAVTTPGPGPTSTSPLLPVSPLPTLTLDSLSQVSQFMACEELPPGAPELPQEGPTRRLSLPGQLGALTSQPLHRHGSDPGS
Description: (§1) The test compounds were added to cultured hERG (human Ether-a-go-go Related Gene) gene stably expressing CHO cell line cells to achieve 0.27 to 100 μM.

[5] = target: hERG (Homo sapiens (Human), UniProt Q12809); test: in vitro; settings: CHO cells stably expressing hERG
Chain of hERG (Q12809 whole entry): as above
Description: as §1

[6] = system: neutrophil count; test: Measurement of neutrophil count using tumor-bearing mice transplanted with ES-2 cells (Test Example 17); format: in vivo; settings: 30 mg/kg, 14 days, 2 times/week; 96 hours after final administration
Description: Blood was collected 96 hours after the final administration to measure the neutrophil count.
Ratio of residual neutrophils (%)=(neutrophil count of administration group 96 hours after administration)/(neutrophil count of control administration group 96 hours after administration)×100

Chain of CHK1 (O14757 whole entry): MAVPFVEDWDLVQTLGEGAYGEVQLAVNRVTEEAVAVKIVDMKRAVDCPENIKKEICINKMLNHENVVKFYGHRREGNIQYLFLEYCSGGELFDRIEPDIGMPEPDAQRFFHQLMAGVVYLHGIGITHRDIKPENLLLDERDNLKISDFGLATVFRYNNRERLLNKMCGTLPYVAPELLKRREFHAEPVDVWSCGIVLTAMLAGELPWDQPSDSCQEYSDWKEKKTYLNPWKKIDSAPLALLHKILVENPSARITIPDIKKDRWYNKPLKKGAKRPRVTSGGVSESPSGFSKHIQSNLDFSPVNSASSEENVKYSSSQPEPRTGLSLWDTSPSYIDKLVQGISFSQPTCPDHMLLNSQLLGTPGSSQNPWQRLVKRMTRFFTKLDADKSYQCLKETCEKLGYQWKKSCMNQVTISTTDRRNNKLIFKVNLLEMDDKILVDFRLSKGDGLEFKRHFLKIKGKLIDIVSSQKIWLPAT

SMILES: COc1cncc(OC[C@@H]2CNCCO2)c1-c1cc(Nc2cnc(C#N)cn2)n[nH]1 (stereo in doubt) [Example 12, 5-[(5-{3-methoxy-5-[(morpholin-2-yl)methoxy]pyridin-4-yl}-1H-pyrazol-3-yl)amino]pyrazine-2-carbonitrile]
- effect of suppressing CHK1 activity (in words) [1]: more potent effect of suppressing CHK1 activity than prexasertib
- inhibition at 0.0001 µM [1]: 21%
- IC50 [2]: 100 to 300 nM
- microsomal CLint [3]: 0.287 µL/min/mg
- hERG/CHK1 [4]: 9118

SMILES: COc1cncc(OC[C@H]2CNCCO2)c1-c1cc(Nc2cnc(C#N)cn2)n[nH]1 (stereo in doubt) [Example 13, 5-[(5-{3-methoxy-5-[(morpholin-2-yl)methoxy]pyridin-4-yl}-1H-pyrazol-3-yl)amino]pyrazine-2-carbonitrile]
- inhibition at 0.0001 µM [1]: 6%
- IC50 [2]: 300 to 1000 nM
- microsomal CLint [3]: 0.484 µL/min/mg
- hERG/CHK1 [4]: <3649
- IC50 [4]: < 2700 nM

SMILES: COc1nccc(OCC2(CO)CNC2)c1-c1cc(Nc2cnc(C#N)cn2)n[nH]1 [Example 8, 5-{[5-(4-{[3-(hydroxymethyl)azetidin-3-yl]methoxy}-2-methoxypyridin-3-yl)-1H-pyrazol-3-yl]amino}pyrazine-2-carbonitrile]
- IC50 [1]: < 0.1 nM
- effect of suppressing CHK1 activity (in words) [1]: more potent effect of suppressing CHK1 activity than prexasertib; also recorded: especially potently suppressing CHK1 activity
- inhibition at 0.0001 µM [1]: 51%
- IC50 [2]: 30 to 100 nM
- Factor of change in IC50 value [3]: Not Detected
- selectivity ratio [5]: ≥ 100000
- hERG/CHK1 [4]: >1000000
- IC50 [4]: > 100000 nM

SMILES: COc1ccnc(OCCCN)c1-c1cc(Nc2cnc(C(F)(F)F)cn2)n[nH]1 [Example 16, N-{5-[2-(3-aminopropoxy)-4-methoxypyridin-3-yl]-1H-pyrazol-3-yl}-5-(trifluoromethyl)pyrazin-2-amine]
- inhibition at 0.0001 µM [1]: < 5%
- IC50 [2]: 300 to 1000 nM
- hERG/CHK1 [4]: <888
- IC50 [4]: < 2700 nM

SMILES: COc1cncc(OC[C@]2(F)CCNC2)c1-c1cc(Nc2cnc(C#N)cn2)n[nH]1 [Example 20, (S)-5-[(5-{3-[(3-fluoropyrrolidin-3-yl)methoxy]-5-methoxypyridin-4-yl}-1H-pyrazol-3-yl)amino]pyrazine-2-carbonitrile]
- effect of suppressing CHK1 activity (in words) [1]: more potent effect of suppressing CHK1 activity than prexasertib
- inhibition at 0.0001 µM [1]: 6%
- IC50 [2]: < 30 nM
- cell growth suppression effect (in words) [2]: excellent cell growth suppression effect that is equivalent to that of prexasertib
- microsomal CLint [3]: 1.11 µL/min/mg
- hERG/CHK1 [4]: 11176

SMILES: COc1cncc(OC[C@@]2(F)CCNC2)c1-c1cc(Nc2cnc(C#N)cn2)n[nH]1 [Example 22, (R)-5-[(5-{3-[(3-fluoropyrrolidin-3-yl)methoxy]-5-methoxypyridin-4-yl}-1H-pyrazol-3-yl)amino]pyrazine-2-carbonitrile]
- effect of suppressing CHK1 activity (in words) [1]: more potent effect of suppressing CHK1 activity than prexasertib
- inhibition at 0.0001 µM [1]: 22%
- IC50 [2]: < 30 nM
- cell growth suppression effect (in words) [2]: excellent cell growth suppression effect that is equivalent to that of prexasertib
- microsomal CLint [3]: 0.349 µL/min/mg
- hERG/CHK1 [4]: 12500

SMILES: COc1cncc(OC[C@H](C)CN)c1-c1cc(Nc2cnc(C#N)cn2)n[nH]1 [Example 28]
- inhibition at 0.0001 µM [1]: < 5%
- IC50 [2]: < 30 nM

SMILES: COc1cncc(OC[C@@H](F)CN)c1-c1cc(Nc2cnc(C#N)cn2)n[nH]1 [Example 29, 5-[(5-{3-[(2S)-3-amino-2-fluoropropoxy]-5-methoxypyridin-4-yl}-1H-pyrazol-3-yl)amino]pyrazine-2-carbonitrile]
- IC50 [2]: < 30 nM
- cell growth suppression effect (in words) [2]: excellent cell growth suppression effect that is equivalent to that of prexasertib
- Factor of change in IC50 value [3]: Not Detected
- microsomal CLint [3]: 0.054 µL/min/mg
- hERG/CHK1 [4]: 18667

SMILES: COc1cncc(OC[C@H](F)CN)c1-c1cc(Nc2cnc(C#N)cn2)n[nH]1 [Example 30, 5-[(5-{3-[(2R)-3-amino-2-fluoropropoxy]-5-methoxypyridin-4-yl}-1H-pyrazol-3-yl)amino]pyrazine-2-carbonitrile]
- effect of suppressing CHK1 activity (in words) [1]: more potent effect of suppressing CHK1 activity than prexasertib
- inhibition at 0.0001 µM [1]: 28%
- IC50 [2]: < 30 nM
- cell growth suppression effect (in words) [2]: excellent cell growth suppression effect that is equivalent to that of prexasertib
- Factor of change in IC50 value [3]: Not Detected
- hERG/CHK1 [4]: 40000

SMILES: CNCCCOc1cncc(OC)c1-c1cc(Nc2cnc(C#N)cn2)n[nH]1 [Example 31, 5-[(5-{3-methoxy-5-[3-(methylamino)propoxy]pyridin-4-yl}-1H-pyrazol-3-yl)amino]pyrazine-2-carbonitrile]
- inhibition at 0.0001 µM [1]: < 5%
- IC50 [2]: < 30 nM
- cell growth suppression effect (in words) [2]: excellent cell growth suppression effect that is equivalent to that of prexasertib

SMILES: COc1cncc(O[C@H](C)C2CNC2)c1-c1cc(Nc2cnc(C#N)cn2)n[nH]1 [Example 33, 5-[(5-{3-[(1R)-1-(azetidin-3-yl)ethoxy]-5-methoxypyridin-4-yl}-1H-pyrazol-3-yl)amino]pyrazine-2-carbonitrile]
- inhibition at 0.0001 µM [1]: < 5%
- IC50 [2]: < 30 nM
- cell growth suppression effect (in words) [2]: excellent cell growth suppression effect that is equivalent to that of prexasertib

SMILES: COc1cncc(O[C@H](C)C2(O)CNC2)c1-c1cc(Nc2cnc(C#N)cn2)n[nH]1 [Example 34, 5-[(5-{3-[(1R)-1-(3-hydroxyazetidin-3-yl)ethoxy]-5-methoxypyridin-4-yl}-1H-pyrazol-3-yl)amino]pyrazine-2-carbonitrile]
- inhibition at 0.0001 µM [1]: < 5%
- IC50 [2]: > 1000 nM

SMILES: CN[C@@H]1CC[C@@H](Oc2cncc(OC)c2-c2cc(Nc3cnc(C#N)cn3)n[nH]2)C1 [Example 35, 5-{[5-(3-methoxy-5-{[(1R,3R)-3-(methylamino)cyclopentyl]oxy}pyridin-4-yl)-1H-pyrazol-3-yl]amino}pyrazine-2-carbonitrile]
- inhibition at 0.0001 µM [1]: < 5%
- IC50 [2]: < 30 nM
- cell growth suppression effect (in words) [2]: excellent cell growth suppression effect that is equivalent to that of prexasertib

SMILES: COc1cncc(O[C@H]2C[C@H](N)[C@H]3C[C@H]32)c1-c1cc(Nc2cnc(C#N)cn2)n[nH]1 [Example 36, 5-{[5-(3-{[(1R,2S,4S,5S)-4-aminobicyclo[3.1.0]hexan-2-yl]oxy}-5-methoxypyridin-4-yl)-1H-pyrazol-3-yl]amino}pyrazine-2-carbonitrile]
- inhibition at 0.0001 µM [1]: < 5%
- IC50 [2]: < 30 nM
- cell growth suppression effect (in words) [2]: excellent cell growth suppression effect that is equivalent to that of prexasertib

SMILES: COc1ccnc(OCC2(CN)CC2)c1-c1cc(Nc2cnc(C#N)cn2)n[nH]1 [Example 37, 5-{[5-(2-{[1-(aminomethyl)cyclopropyl]methoxy}-4-methoxypyridin-3-yl)-1H-pyrazol-3-yl]amino}pyrazine-2-carbonitrile]
- effect of suppressing CHK1 activity (in words) [1]: more potent effect of suppressing CHK1 activity than prexasertib
- inhibition at 0.0001 µM [1]: 18%
- IC50 [2]: < 30 nM
- cell growth suppression effect (in words) [2]: excellent cell growth suppression effect that is equivalent to that of prexasertib
- Factor of change in IC50 value [3]: Not Detected
- inhibition of CYP3A4 based on MBI (in words) [3]: do not exhibit inhibition of CYP3A4 based on MBI
- hERG/CHK1 [4]: <8438
- IC50 [4]: < 2700 nM

SMILES: COc1nccc(OCC2(CN)CC2)c1-c1cc(Nc2cnc(C#N)cn2)n[nH]1 [Example 38, 5-{[5-(4-{[1-(aminomethyl)cyclopropyl]methoxy}-2-methoxypyridin-3-yl)-1H-pyrazol-3-yl]amino}pyrazine-2-carbonitrile]
- inhibition at 0.0001 µM [1]: < 5%
- IC50 [2]: < 30 nM
- cell growth suppression effect (in words) [2]: excellent cell growth suppression effect that is equivalent to that of prexasertib

SMILES: Nc1ccn([C@@H]2O[C@H](CO)[C@@H](O)C2(F)F)c(=O)n1 [Gemcitabine]
- Ratio of residual neutrophils [6]: 39%
